From patent US10189863B2, “5,6-dihydro-4H-benzo[b]thieno-[2,3-d]azepine derivatives” (PULMOCIDE LIMITED, priority 2014, dated 2019)

Tested on: RSV A2
Test: Virus titre in air-liquid interface (ALI) cultured bronchial epithelial cells (plaque assay)
Format: cell-based, human respiratory syncytial virus
Conditions: for Effect on RSV titre (in words): early intervention
Description: Assessment of Virus Titre in Air-liquid Interface (ALI) Cultured Bronchial Epithelial Cells
ALI cultured human bronchial epithelial cells were sourced from Epithelix Sarl (Geneva, Switzerland) and maintained by changing the basal media every 3-4 days, whilst the apical surface was washed once weekly with PBS. On Day 0, the apical surface of each well was washed once with sterile PBS (300 μL) and the inserts were transferred to new 24-well plates containing fresh MucilAir culture medium (780 μL; EP04MM). RSV A2 (50 μL; diluted in MucilAir culture medium to give a final MOI of 0.01) was added to cells for one hr (37° C./5% CO2). For the purposes of standardizing MOI calculations, each MucilAir insert was estimated to contain 2×10^5 apical facing cells per well. Virus inoculum was removed with a pipette and inserts were washed twice with sterile PBS (300 μL).
Sampling was conducted by adding sterile PBS (300 μL) to the apical surface of each well for 5 min. The apical sample was then removed and transferred to tubes containing 50% sucrose dissolved in PBS (100 μL) before being stored at −80° C. This harvesting procedure was repeated daily beginning on day 0 and concluding on day 7.
ALI cultures were dosed apically with test compound on days 0-7 for “early intervention” protocols, or days 3-7 for “late intervention” protocols. The test compound (50 μL in 0.5% DMSO/PBS) was added to the apical surface and incubated (37° C./5% CO2) for 1 hr before being removed. Vehicle treatments (0.5% DMSO/PBS) were performed on the corresponding apical surfaces to ensure each well received the same number of manipulations. On day 5, the basal media was removed from each well and replenished with fresh MucilAir culture media as a necessary maintenance step for ALI culture cells.
Virus titre was quantified by plaque assay. HEp2 cells were grown in 24-well plates (Corning) for 48 hr prior to infection in DMEM containing 10% FBS until they attained 100% confluency. Collected samples were thawed at RT and ten-fold serial dilutions were prepared in serum-free DMEM. The growth medium from HEp2 cells was aspirated and replaced with 300 μL of serially diluted virus collections and left to infect at 37° C./5% CO2 for 4 hr. The infectious media was aspirated and replaced with Plaque Assay Overlay (500 μL; 1% methylcellulose in MEM, 2% FBS, 1% Pen Strep, 0.5 μg/mL amphotericin B), and left for 7 days at 37° C./5% CO2. Cells were fixed with ice-cold methanol for 10 min and blocked with 5% powdered milk (Marvel) in 0.05% PBS-tween (‘blocking buffer’) for 1 hr at RT. Anti-RSV F-protein antibody (2F7; Abcam: ab43812) was diluted to a 1:100 concentration in blocking buffer and added to cells for 1 hr at RT with shaking. Cells were washed using PBS and incubated with the secondary antibody (HRP conjugated goat anti-mouse secondary antibody (Dako P044701-2) diluted in 1:400 with blocking buffer) for 1 hr at RT with shaking. The secondary antibody solution was removed and cells were washed with PBS before the metal-enhanced development substrate DAB was prepared in ultra-pure water (according to manufacturer's instructions). Each well received 300 μL of development substrate (sigmaFAST D0426) until plaques were visible. Plaques were counted by eye and confirmed using light microscopy, allowing the calculation of plaque forming units per mL.

## Cc1cnc(N2CC3(CCOCC3)C2)c(C(=O)Nc2ccc(C(=O)N3CCc4cc(C(=O)Nc5c(C)cccc5F)sc4-c4ccccc43)cc2)c1 [Example 5, N-(2-Fluoro-6-methylphenyl)-6-(4-(5-methyl-2-(7-oxa-2-azaspiro[3.5]nonan-2-yl)nicotinamido)benzoyl)-5,6-dihydro-4H-benzo[b]thieno[2,3-d]azepine-2-carboxamide]
Early intervention (days 0-7), 0.004 mg/mL, day 0
  Virus titre in apical wash, geometric mean ± SD: 0.0 ± 0.0 log PFU/mL
Early intervention (days 0-7), 0.004 mg/mL, day 1
  Virus titre in apical wash, geometric mean ± SD: 0.61 ± 0.86 log PFU/mL
Early intervention (days 0-7), 0.004 mg/mL, day 2
  Virus titre in apical wash, geometric mean ± SD: 3.1 ± 0.22 log PFU/mL
Early intervention (days 0-7), 0.004 mg/mL, day 3
  Virus titre in apical wash, geometric mean ± SD: 3.9 ± 0.18 log PFU/mL
Early intervention (days 0-7), 0.004 mg/mL, day 4
  Virus titre in apical wash, geometric mean ± SD: 4.1 ± 0.16 log PFU/mL
Early intervention (days 0-7), 0.004 mg/mL, day 5
  Virus titre in apical wash, geometric mean ± SD: 4.2 ± 0.12 log PFU/mL
Early intervention (days 0-7), 0.004 mg/mL, day 6
  Virus titre in apical wash, geometric mean ± SD: 3.2 ± 0.26 log PFU/mL
Early intervention (days 0-7), 0.004 mg/mL, day 7
  Virus titre in apical wash, geometric mean ± SD: 2.8 ± 0.43 log PFU/mL
Early intervention (days 0-7), 0.02 mg/mL, day 0
  Virus titre in apical wash, geometric mean ± SD: 0.0 ± 0.0 log PFU/mL
Early intervention (days 0-7), 0.02 mg/mL, day 1
  Virus titre in apical wash, geometric mean ± SD: 0.0 ± 0.0 log PFU/mL
Early intervention (days 0-7), 0.02 mg/mL, day 2
  Virus titre in apical wash, geometric mean ± SD: 0.0 ± 0.0 log PFU/mL
Early intervention (days 0-7), 0.02 mg/mL, day 3
  Virus titre in apical wash, geometric mean ± SD: 0.0 ± 0.0 log PFU/mL
Early intervention (days 0-7), 0.02 mg/mL, day 4
  Virus titre in apical wash, geometric mean ± SD: 1.4 ± 1.1 log PFU/mL
Early intervention (days 0-7), 0.02 mg/mL, day 5
  Virus titre in apical wash, geometric mean ± SD: 1.9 ± 1.4 log PFU/mL
Early intervention (days 0-7), 0.02 mg/mL, day 6
  Virus titre in apical wash, geometric mean ± SD: 0.0 ± 0.0 log PFU/mL
Early intervention (days 0-7), 0.02 mg/mL, day 7
  Virus titre in apical wash, geometric mean ± SD: 0.0 ± 0.0 log PFU/mL
Early intervention (days 0-7), 0.1 mg/mL, day 0
  Virus titre in apical wash, geometric mean ± SD: 0.0 ± 0.0 log PFU/mL
Early intervention (days 0-7), 0.1 mg/mL, day 1
  Virus titre in apical wash, geometric mean ± SD: 0.0 ± 0.0 log PFU/mL
Early intervention (days 0-7), 0.1 mg/mL, day 2
  Virus titre in apical wash, geometric mean ± SD: 0.0 ± 0.0 log PFU/mL
Early intervention (days 0-7), 0.1 mg/mL, day 3
  Virus titre in apical wash, geometric mean ± SD: 0.0 ± 0.0 log PFU/mL
Early intervention (days 0-7), 0.1 mg/mL, day 4
  Virus titre in apical wash, geometric mean ± SD: 0.0 ± 0.0 log PFU/mL
Early intervention (days 0-7), 0.1 mg/mL, day 5
  Virus titre in apical wash, geometric mean ± SD: 0.0 ± 0.0 log PFU/mL
Early intervention (days 0-7), 0.1 mg/mL, day 6
  Virus titre in apical wash, geometric mean ± SD: 0.0 ± 0.0 log PFU/mL
Early intervention (days 0-7), 0.1 mg/mL, day 7
  Virus titre in apical wash, geometric mean ± SD: 0.0 ± 0.0 log PFU/mL
0.1 μg/mL over 7 days
  Effect on RSV titre (in words): complete inhibition
Apical well daily from day 0 to day 7
  Effect on RSV titre (in words): concentration dependent inhibition
Early or late stage intervention
  Effect on virus titre (in words): completely inhibited virus titre
Late intervention (days 3-7), 0.02 mg/mL, day 0
  Virus titre in apical wash, geometric mean ± SD: 0.0 ± 0.0 log PFU/mL
Late intervention (days 3-7), 0.02 mg/mL, day 1
  Virus titre in apical wash, geometric mean ± SD: 1.6 ± 1.1 log PFU/mL
Late intervention (days 3-7), 0.02 mg/mL, day 2
  Virus titre in apical wash, geometric mean ± SD: 3.9 ± 0.15 log PFU/mL
Late intervention (days 3-7), 0.02 mg/mL, day 3
  Virus titre in apical wash, geometric mean ± SD: 5.2 ± 0.04 log PFU/mL
Late intervention (days 3-7), 0.02 mg/mL, day 4
  Virus titre in apical wash, geometric mean ± SD: 3.8 ± 0.50 log PFU/mL
Late intervention (days 3-7), 0.02 mg/mL, day 5
  Virus titre in apical wash, geometric mean ± SD: 3.6 ± 0.13 log PFU/mL
Late intervention (days 3-7), 0.02 mg/mL, day 6
  Virus titre in apical wash, geometric mean ± SD: 0.0 ± 0.0 log PFU/mL
Late intervention (days 3-7), 0.02 mg/mL, day 7
  Virus titre in apical wash, geometric mean ± SD: 1.3 ± 0.94 log PFU/mL
Late intervention (days 3-7), 0.1 mg/mL, day 0
  Virus titre in apical wash, geometric mean ± SD: 0.0 ± 0.0 log PFU/mL
Late intervention (days 3-7), 0.1 mg/mL, day 1
  Virus titre in apical wash, geometric mean ± SD: 2.3 ± 0.35 log PFU/mL
Late intervention (days 3-7), 0.1 mg/mL, day 2
  Virus titre in apical wash, geometric mean ± SD: 4.1 ± 0.14 log PFU/mL
Late intervention (days 3-7), 0.1 mg/mL, day 3
  Virus titre in apical wash, geometric mean ± SD: 5.0 ± 0.14 log PFU/mL
Late intervention (days 3-7), 0.1 mg/mL, day 4
  Virus titre in apical wash, geometric mean ± SD: 3.8 ± 0.31 log PFU/mL
Late intervention (days 3-7), 0.1 mg/mL, day 5
  Virus titre in apical wash, geometric mean ± SD: 1.7 ± 1.2 log PFU/mL
Late intervention (days 3-7), 0.1 mg/mL, day 6
  Virus titre in apical wash, geometric mean ± SD: 0.0 ± 0.0 log PFU/mL
Late intervention (days 3-7), 0.1 mg/mL, day 7
  Virus titre in apical wash, geometric mean ± SD: 0.0 ± 0.0 log PFU/mL
Late intervention, administered from day 3, days 6 and 7 post infection
  Effect on virus titre (in words): dramatic reduction of virus titre
